Results on 8 compounds are retold here after patent US8592469B2, “Diazonamide analogs” (Joyant Pharmaceuticals, Inc., priority 2012, dated 2013).

Test [1] has as its system A2058 cells. The test is described as follows: Cell viability assay (Cell-Titer-Glo) in A2058 cells. The format is cell-based. The settings on record: Homo sapiens, 48 hour treatment, test compounds 1 nM to 1 μM. The procedure: (§1) Cell viability assays were run using standard protocols known to those of skill in art. Cells were plated in 96 well plates at the density of 3,000-10,000 cells per well. Twenty four hours later, cells were treated with increasing concentration of test compounds (1 nM to 1 μM). After another 48 hour, cell survival was measured using Cell-Titer-Glo® reagent (Promega) following the protocol provided by the manufacture. The IC50 value was determined as the concentration of test compound that kills 50% of the cell population.
(§2) Cell viability data generated according to the protocol described above was generated for representative compounds in A2058 and U937 cells. The compounds shown in Table 1 were prepared by the methods described herein for structurally similar compounds. The reference compound was a synthetic diazonamide analog having the structure: […]

In test [2] the test system is U937 cells. The test can be described thus: Cell viability assay (Cell-Titer-Glo) in U937 cells. The format is cell-based. The conditions noted are these: Homo sapiens, U-937, 48 hour treatment, test compounds 1 nM to 1 μM. The procedure: as §1, §2

One may read the IC50 as the concentration that gives 50% inhibition. A higher IC50 goes with a need for much substance. For the compound `COC(=O)c1csc(-c2nc3oc2C24c5ccccc5N[C@H]2Oc2ccc(cc24)C[C@H](NC(=O)[C@@H](O)C(C)C)C(=O)N[C@H]3C(C)C)n1` (stereo partly shown) [Compound 97], the values for the IC50 in test [1] and in test [2] were 225 nM and 59.5 nM, respectively.
On the same counts, the results for `CC(C)[C@H](O)C(=O)N[C@H]1Cc2ccc3c(c2)C2(C4=C(c5nc(CO)cs5)N=C(O4)[C@H](C(C)C)NC1=O)c1ccccc1N[C@H]2O3` (stereo partly shown) [Compound 98] are 284 nM and 231 nM.
With `COC(=O)c1coc(-c2nc3oc2C24c5ccccc5N[C@H]2Oc2ccc(cc24)C[C@H](NC(=O)[C@@H](O)C(C)C)C(=O)N[C@@H]3C(C)C)n1` (stereo partly shown) [Compound 99], the IC50 in test [1] and in test [2] was more than 1000 nM each time.
Consider `CC(C)[C@H](O)C(=O)N[C@H]1Cc2ccc3c(c2)[C@]2(C4=C(c5nc(CC(F)(F)F)co5)N=C(O4)[C@H](C(C)C)NC1=O)c1ccccc1NC2O3` (stereo partly shown) [Compound 100], for which the IC50 in test [1] is 465 nM; in test [2], 220 nM.
On the same counts, the results for `CC(C)c1coc(-c2nc3oc2C24c5ccccc5N[C@H]2Oc2ccc(cc24)C[C@H](NC(=O)[C@@H](O)C(C)C)C(=O)N[C@H]3C(C)C)n1` (stereo partly shown) [Compound 101] are 684 nM and 500 nM.
Take `COC(=O)c1coc(-c2nc3oc2[C@]24c5ccccc5NC2Oc2ccc(cc24)C[C@H](NC(=O)[C@@H](O)C(C)C)C(=O)N[C@H]3C(C)(C)C)n1` (stereo partly shown) [Compound 103]: the IC50 in test [1] stood at 221 nM; in test [2], 69 nM.
On the same counts, the results for `COC(=O)c1coc(-c2nc3oc2CC/C=C/C[C@H](NC(=O)[C@@H](O)C(C)C)C(=O)N[C@H]3C(C)C)n1` [Compound 104] are more than 300 nM and more than 300 nM.
With `COC(=O)c1coc(-c2nc3oc2CCCCC[C@H](NC(=O)[C@@H](O)C(C)C)C(=O)N[C@H]3C(C)C)n1` [Compound 105], the IC50 in test [1] and in test [2] was more than 300 nM in each case.
